{"source": "paper PMC5578999", "about": "“Novel quinolone chalcones targeting colchicine-binding pocket kill multidrug-resistant cancer cells by inhibiting tubulin activity and MRP1 function” (Scientific Reports, 2017)", "key": {"[1]": {"molecular_target": "tubulin, colchicine-binding pocket", "test": "Competitive colchicine-tubulin binding assay (modified Dixon plot)", "conditions": "competitive with colchicine", "experimental": "To determine the mode of binding, a competitive binding assay was carried out as described previously. Briefly, tubulin (0.4 μmol/L) was incubated with different concentrations of CTR for 1 hour at 37 °C. Subsequently, colchicine was added to the reaction mixture containing CTR-tubulin complexes. […] Fluorescence was monitored using an automated plate reader (Synergy H4 Hybrid Multi-Mode Micro plate Reader) with an excitation wavelength at 360 nm and emission at 430 nm. […] The experiment was repeated four times."}, "NCI-H322M": {"system": "NCI-H322M", "test": "NCI-60 SRB screen", "type": "cell-based", "description": "(§1) Supplementary Figure l egend\n(§2) 10μ M of CTR-20 was used to examine the drug’s efficac y against the NC I-60 cancer cell li nes including: six leukemia cell lines, nine non- small cell lung cancer cell lines, seven color ect al cancer cell lines, six CNS cancer cell lines, nine melanoma cell lines, seven ovari an can cer cell lines, seven ren al can cer cell lines, two prostate cancer cell lines and six breast cancer cell lines. The scr eenin g was car r ied out b y the US National Cancer Institute (NC I) us i n g a sulforhodamine B (SRB) colorimetric assay. […]\n(§3) out by the NC I using five different doses of CTR -20."}, "HCT-15": {"system": "HCT-15", "test": "NCI-60 SRB screen", "type": "cell-based", "description": "as §1, §2, §3"}, "SK-MEL-2": {"system": "SK-MEL-2", "test": "NCI-60 SRB screen", "type": "cell-based", "description": "as §1, §2, §3"}, "centrosomes": {"system": "centrosomes", "test": "Distance between two centrosomes by fluorescence microscopy", "type": "cell-based", "conditions": "3.0 μmol/L CTR-17", "experimental": "and Lee, 2008). The reversibility of drug effects was carried out as follow: He La cells treated\nwith CTR-17 or CTR-20 for 12 hours were w ashed twice with 1 × PBS and then releas ed into\npre-w armed complet emedium . Subsequentl y, c ell s were h arvested at scheduled time points to\nex amine their DNA profi les /cell c ycle positions by flow c ytometr y.\nImmunofluorescencestai ning was car ried out as d escribed previousl y (Santi and Lee,\n2011).Photograph y was carri ed out with a Carl Zeiss 510 Meta l aser s cann ing microscop e or an\nAxioscope,and images were captur ed with LSM image examiner (Carl Zeiss, North York, ON,\nCanada). For immunostaining , a background cont rol (without secondar y antibody) and bleed-\nthrough controls (cells labeled with each fluorophore separatel y) were used to avoid inaccur ate\ninterpretation of dat a due to artifacts. A minimum of 10 fields per coverslip and 200 cells for\nquantitative cell anal ysis were captur ed. Each ex periment was r epeat ed at l east twice. Western\nblotting was carried out as described previousl y (Santi and Lee, 2010).\nMolecular Operating Environment (MOE) (Chemi cal Computing Group Inc, Montreal, […]\nThe best docking pose was determined based on t he minimum free energy for binding. […]\nhours or 24hours . The m itotic index was determined b y fluorescence micro scop y with counting […]"}, "[2]": {"conditions": "Homo sapiens, read-out: LC50 (the source's name)"}}, "note": "Several values for one entry are separate records, joined by “and”; a condition that tells them apart may be missing. Identical values can stand only once."}
{"smiles": "COc1ccc2[nH]c(=O)c(/C=C/C(=O)c3ccccc3OC)cc2c1", "note": "[CTR-20, (E)-6-Methoxy-3-(3-(2-methoxyphenyl)-3-oxoprop-1-enyl) quinolin-2(1H)-one]", "values": [{"measurement": "binding to the colchicine-binding pocket by Ki values, relative to CTR-17", "setting": "[1]", "result": "approximately five times more strongly"}, {"measurement": "Log10GI50", "setting": "NCI-H322M", "result": -5.62, "unit": "Molar"}, {"measurement": "Log10LC50", "setting": "NCI-H322M", "result": -4.48, "unit": "Molar"}, {"measurement": "Log10TGI", "setting": "NCI-H322M", "result": -4.98, "unit": "Molar"}, {"measurement": "TGI", "setting": "NCI-H322M", "result": "1.04E-5", "unit": "Molar"}, {"measurement": "Growth Percent", "setting": "NCI-H322M; 1.00E-5 Molar", "result": 18.31, "unit": "%"}, {"measurement": "GI50", "setting": "NCI-H322M; Homo sapiens", "result": 2400, "unit": "nM"}, {"measurement": "CC50", "setting": "NCI-H322M; [2]", "result": 33.5, "unit": "µM"}, {"measurement": "Percent Growth", "setting": "NCI-H322M; Log10 Concentration -4.0", "result": -97, "unit": "%"}, {"measurement": "Percent Growth", "setting": "NCI-H322M; Log10 Concentration -5.0", "result": 2, "unit": "%"}, {"measurement": "Percent Growth", "setting": "NCI-H322M; Log10 Concentration -6.0", "result": 80, "unit": "%"}, {"measurement": "Percent Growth", "setting": "NCI-H322M; Log10 Concentration -7.0", "result": 93, "unit": "%"}, {"measurement": "Percent Growth", "setting": "NCI-H322M; Log10 Concentration -8.0", "result": 94, "unit": "%"}, {"measurement": "Log10GI50", "setting": "HCT-15", "result": -6.40, "unit": "Molar"}, {"measurement": "Log10LC50", "setting": "HCT-15", "result": -5.08, "unit": "Molar"}, {"measurement": "Log10TGI", "setting": "HCT-15", "result": -5.69, "unit": "Molar"}, {"measurement": "TGI", "setting": "HCT-15", "result": "2.05E-6", "unit": "Molar"}, {"measurement": "Growth Percent", "setting": "HCT-15; 1.00E-5 Molar", "result": 11.32, "unit": "%"}, {"measurement": "GI50", "setting": "HCT-15; Homo sapiens", "result": 395, "unit": "nM"}, {"measurement": "LC50", "setting": "HCT-15; Homo sapiens", "result": 8.29, "unit": "µM"}, {"measurement": "Percent Growth", "setting": "HCT-15; Log10 Concentration -4.0", "result": -85, "unit": "%"}, {"measurement": "Percent Growth", "setting": "HCT-15; Log10 Concentration -5.0", "result": -57, "unit": "%"}, {"measurement": "Percent Growth", "setting": "HCT-15; Log10 Concentration -6.0", "result": 26, "unit": "%"}, {"measurement": "Percent Growth", "setting": "HCT-15; Log10 Concentration -7.0", "result": 86, "unit": "%"}, {"measurement": "Percent Growth", "setting": "HCT-15; Log10 Concentration -8.0", "result": 95, "unit": "%"}, {"measurement": "Log10GI50", "setting": "SK-MEL-2", "result": -6.16, "unit": "Molar"}, {"measurement": "Log10LC50", "setting": "SK-MEL-2", "result": -4.54, "unit": "Molar"}, {"measurement": "Log10TGI", "setting": "SK-MEL-2", "result": -5.36, "unit": "Molar"}, {"measurement": "TGI", "setting": "SK-MEL-2", "result": "4.39E-6", "unit": "Molar"}, {"measurement": "Growth Percent", "setting": "SK-MEL-2; 1.00E-5 Molar", "result": -2.52, "unit": "%"}, {"measurement": "GI50", "setting": "SK-MEL-2; Homo sapiens", "result": 694, "unit": "nM"}, {"measurement": "CC50", "setting": "SK-MEL-2; [2]", "result": 29.2, "unit": "µM"}, {"measurement": "Percent Growth", "setting": "SK-MEL-2; Log10 Concentration -4.0", "result": -81, "unit": "%"}, {"measurement": "Percent Growth", "setting": "SK-MEL-2; Log10 Concentration -5.0", "result": -23, "unit": "%"}, {"measurement": "Percent Growth", "setting": "SK-MEL-2; Log10 Concentration -6.0", "result": 41, "unit": "%"}, {"measurement": "Percent Growth", "setting": "SK-MEL-2; Log10 Concentration -7.0", "result": 99, "unit": "%"}, {"measurement": "Percent Growth", "setting": "SK-MEL-2; Log10 Concentration -8.0", "result": 95, "unit": "%"}]}
{"smiles": "COc1ccccc1C(=O)/C=C/c1cc2ccccc2[nH]c1=O", "note": "[CTR-17, (E)-3-(3-(2-Methoxyphenyl)-3-oxoprop-1-enyl)quinolin-2(1H)-one]", "values": [{"measurement": "distance between two centrosomes", "setting": "centrosomes", "result": "4.83 ± 0.36", "unit": "µm"}, {"measurement": "distance between two centrosomes shorter than sham control", "setting": "centrosomes", "result": "~ 35% and 35%"}]}
